This note sets out measurements from patent US10596137B2, “Medium chain fatty acids and their triglycerides for treating anxiety” (NESTEC S.A., priority 2015, dated 2020).

A short description of this test: Temporal dynamics of plasma and brain ketones after octanoic or decanoic acid ingestion. Format: in vivo, rat. The settings on record: after ingestion (oral gavage); for plasma and brain β-HB (ketone) levels: kinetics. The method, then: Blood was drawn from the tail vein 7 days after initiation of treatment and trunk blood was collected during sacrifice. Blood was centrifuged and plasma samples were analysed for beta-hydroxybutyrate using a colorimetric kit (Cayman, US). For measurement of brain ketones, sample preparation involved liquid/liquid extraction of 50 μl brain tissue supernatant (pH 2), and extract derivatization with MSTFA (silylation). Analysis of BHB was performed via GC/MS, int. Standard 13C2-3-OH-But, m/z 233 (3-OH-But), m/z 118 (13C2-3-OH-But), with a calibration of 2-24 μg/ml (water); LOQ: 2 μg/ml, LOD: 0.7 μg/ml.
Control rats received oral gavage of sunflower oil, as described above. MCT8 and MCT10 received oral gavage of octanoic acid or decanoic acid, respectively. Rats were sacrificed and trunk blood, portal vein blood and brain, pancreas and liver were collected as indicated.

“Also recorded” adds a separate entry of the source.

As to `CCCCCCCCCC(=O)O` [decanoic acid], the “plasma and brain β-HB (ketone) levels” value is listed as “longer-lasting increase; also recorded: prolonged increase”.

On to `CCCCCCCC(=O)O` [octanoic acid], for which the “plasma and brain β-HB (ketone) levels” value is “more rapid increase; also recorded: rapid increase”. In addition, the plasma ketone levels entry (octanoic compared to decanoic acid) is “increased more rapidly”.
